# Values quoted from earlier work as cited in PMC9299415 (Molecular Neurobiology, 2022).
# Assays:
# SARS-CoV-2 = conditions: rhesus macaque model, ref [18]
compound,measurement,setting,value
"CCN1C[C@]2(COC(=O)c3ccccc3N3C(=O)C[C@H](C)C3=O)CC[C@H](OC)[C@@]34[C@@H]5C[C@H]6[C@H](OC)[C@@H]5[C@](O)(C[C@@H]6OC)[C@@](O)([C@@H](OC)[C@H]23)[C@@H]14 [MLA, methyllycaconitine]",agonist/antagonist type at α7,α7 nAChR,reversible competitive α7 antagonist
c1cnc2cc3c(cc2n1)[C@@H]1CNC[C@H]3C1 [varenicline],agonist/antagonist type at α7,α7 nAChR,full agonist
same,infectivity and disease progression,SARS-CoV-2,reduces infectivity and disease progression
"COc1cc(OC)c(NC(=O)Nc2cc(C)on2)cc1Cl [PNU-120596, N-(5-Chloro-2,4-dimethoxyphenyl)-N’-(5-methyl-3-isoxazolyl)-urea]",channel activation by PNU-120596 by itself,α7 nAChR,cannot induce channel activation
"Oc1ccc2[nH]ccc2c1 [5-HI, 5-hydroxyindole]",potentiation efficacy compared with PNU-120596,α7 nAChR,lower efficacy than PNU-120596
same,recovery of receptors from desensitization,α7 nAChR,does not produce significant recovery of receptors from desensitization
